In patent US20240327354A1, “GRAM-NEGATIVE BACTERIA EFFLUX PUMP INHIBITORS” (INSTITUT NATIONAL DE LA SANTÉ ET DE LA RECHERCHE MÉDICALE, priority 2021, published 2024):
Structures can show the parent of a compound that is named as a salt.

Test system: E. coli BW25113
Test: Assay 1: growth inhibition of E. coli by sub-inhibitory pyridomycin in combination with examples (resazurin reduction)
Type: cell-based, Escherichia coli
Settings: read-out: EC50 on E. coli with 8 μg/mL of pyridomycin, 8 μg/mL pyridomycin, 5 h, 37° C.
Description: Escherichia coli BW25113 (CGSC 7636) and its derivatives E. coli ΔtolC (JW5503-1, ΔtolC732::kan, CGSC 11430), E. coli ΔacrA (JW0452-3, ΔacrA748::kan, CGSC 11843) and E. coli ΔacrB (JW0451-2, ΔacrB747::kan, CGSC 8609) were obtained from E. coli Genetic Stock Center (CGSC, New Haven, Connecticut) and originated from the Keio Collection (Baba T et al, Mol Sys Biol, 2006). Klebsiella pneumoniae (LMG 2095/ATCC 13883) and K. pneumoniae (ATCC43816), Pseudomonas aeruginosa (PAO1), Acinetobacter baumannii (LMG 1025, ATCC 17978), were obtained from ATCC or BCCM/LMG Bacteria Collection. All bacteria were grown and tested in cation-adjusted Mueller-Hinton broth (CAMHB; BD Difco) at 37° C. For conservation, log phase bacteria were frozen (−80° C.) in CAMHB supplemented with 15% glycerol.
Briefly, E. coli BW25113 were diluted from frozen or growing stocks to an OD600 of 0.0004-0.001 in CAMHB. […] E. coli BW25113 viability was evaluated using the resazurin reduction assay, and measured by fluorescence (POLARstar Omega, BMG Labtech: Ex: 530 nm Em: 590 nm). EC50 were defined as the compound concentration that prevented 50% of resazurin turnover compared to the non-treated bacteria.

| Structure (SMILES) | EC50 [µM] |
| --- | --- |
| Clc1cc2cc(N[C@H]3CCCNC3)ccc2nc1N1CCNCC1 (stereo in doubt) [Example 104, 3-chloro-2-piperazin-1-yl-N-(3-piperidyl)quinolin-6-amine;dihydrochloride] | < 5 |
| CN1CCN(c2ncc(C(F)(F)F)cc2Cl)CC1 [Example 1, 1-[3-chloro-5-(trifluoromethyl)-2-pyridyl]-4-methyl-piperazine] | 100 to 500 |
| CN1CCN(c2ncc(C(F)(F)F)cc2Br)CC1 [Example 2, 1-[3-bromo-5-(trifluoromethyl)-2-pyridyl]-4-methyl-piperazine] | 5 to 100 |
| COC(=O)c1cnc(N2CCN(C)CC2)c(Cl)c1 [Example 3, methyl 5-chloro-6-(4-methylpiperazin-1-yl)pyridine-3-carboxylate] | 5 to 100 |
| CN1CCN(c2ncc(Br)cc2Cl)CC1 [Example 4, 1-(5-bromo-3-chloro-2-pyridyl)-4-methyl-piperazine] | 5 to 100 |
| CN1CCN(c2ccc(C(F)(F)F)cc2Cl)CC1 [Example 5, 1-[2-chloro-4-(trifluoromethyl)phenyl]-4-methyl-piperazine] | 100 to 500 |
| NC1CCN(c2ncc(C(F)(F)F)cc2Cl)CC1 [Example 7, 1-[3-chloro-5-(trifluoromethyl)-2-pyridyl]piperidin-4-amine] | 100 to 500 |
| Cc1cnc(N2CCN(C)CC2)c(Cl)c1 [Example 10, 1-(3-chloro-5-methyl-2-pyridyl)-4-methyl-piperazine] | 5 to 100 |
| Cc1cnc(N2CCNCC2)c(Cl)c1 [Example 12, 1-(3-chloro-5-methyl-2-pyridyl)piperazine; hydrochloride] | 5 to 100 |
| COc1cnc(N2CCNCC2)c(Cl)c1 [Example 13, 1-(3-chloro-5-methoxy-2-pyridyl)piperazine;hydrochloride] | 100 to 500 |
| COC(=O)c1cnc(N2CCNCC2)c(Cl)c1 [Example 18, methyl 5-chloro-6-piperazin-1-yl-pyridine-3-carboxylate; hydrochloride] | 5 to 100 |
| Clc1cc(Br)cnc1N1CCNCC1 [Example 19, 1-(5-bromo-3-chloro-2-pyridyl)piperazine;hydrochloride] | 5 to 100 |
| NCCc1ccc(OC(=O)c2cnc(N3CCNCC3)c(Cl)c2)cc1 [Example 28, [4-(2-aminoethyl)phenyl] 5-chloro-6-piperazin-1-yl-pyridine-3-carboxylate;dihydrochloride] | < 5 |
| NCc1cccc(OC(=O)c2cnc(N3CCNCC3)c(Cl)c2)c1 [Example 29, [3-(aminomethyl)phenyl] 5-chloro-6-piperazin-1-yl-pyridine-3-carboxylate;dihydrochloride] | < 5 |
| CCOC(=O)c1cnc(N2CCNCC2)c(Cl)c1 [Example 32, ethyl 5-chloro-6-piperazin-1-yl-pyridine-3-carboxylate; hydrochloride] | 5 to 100 |
| NCCc1ccc(NC(=O)c2cnc(N3CCNCC3)c(Cl)c2)cc1 [Example 34, N-[4-(2-aminoethyl)phenyl]-5-chloro-6-piperazin-1-yl-pyridine-3-carboxamide;dihydrochloride] | 5 to 100 |
| CC(=O)Nc1cnc(N2CCNCC2)c(Cl)c1 [Example 35, N-(5-chloro-6-piperazin-1-yl-3-pyridyl)acetamide;hydrochloride] | 100 to 500 |
| CS(=O)(=O)Nc1cnc(N2CCNCC2)c(Cl)c1 [Example 36, N-(5-chloro-6-piperazin-1-yl-3-pyridyl)methane sulfonamide;hydrochloride] | 100 to 500 |
| Clc1nc2ccccc2cc1N1CCNCC1 [Example 40, 2-chloro-3-piperazin-1-yl-quinoline;hydrochloride] | 5 to 100 |
| Cc1cc2nc(Cl)c(N3CCNCC3)nc2cc1C [Example 47, 2-chloro-6,7-dimethyl-3-piperazin-1-yl-quinoxaline;hydrochloride] | < 5 |
| C[C@H]1CN(c2nc3ccccc3nc2Cl)CCN1 [Example 50, 2-chloro-3-[(3S)-3-methylpiperazin-1-yl]quinoxaline;hydrochloride] | 5 to 100 |
| Clc1cc2cc(N3CCNCC3)ccc2nc1N1CCNCC1 [Example 56, 3-chloro-2,6-di(piperazin-1 yl)quinoline;dihydrochloride] | < 5 |
| Clc1cc2cc(Br)ccc2nc1N1CCNCC1 [Example 60, 6-bromo-3-chloro-2-piperazin-1-yl-quinoline;hydrochloride] | 5 to 100 |

| Structure (SMILES) | EC50 [µM] |
| --- | --- |
| Clc1cc2cc(I)ccc2nc1N1CCNCC1 [Example 61, 3-chloro-6-iodo-2-piperazin-1-yl-quinoline;hydrochloride] | < 5 |
| NCCNc1ccc2nc(N3CCNCC3)c(Cl)cc2c1 [Example 62, N′-(3-chloro-2-piperazin-1-yl-6-quinolyl)ethane-1,2-diamine; dihydrochloride] | < 5 |
| NCCCNc1ccc2nc(N3CCNCC3)c(Cl)cc2c1 [Example 63, N′-(3-chloro-2-piperazin-1-yl-6-quinolyl)propane-1,3-diamine; dihydrochloride] | < 5 |
| O=C1CNCCN1c1ccc2nc(N3CCNCC3)c(Cl)cc2c1 [Example 64, 1-(3-chloro-2-piperazin-1-yl-6-quinolyl)piperazin-2-one;dihydrochloride] | 5 to 100 |
| NCC(=O)Nc1ccc2nc(N3CCNCC3)c(Cl)cc2c1 [Example 65, 2-amino-N-(3-chloro-2-piperazin-1-yl-6-quinolyl)acetamide;dihydrochloride] | < 5 |
| Clc1cc2cc(N3CCCCC3)ccc2nc1N1CCNCC1 [Example 67, 3-chloro-2-piperazin-1-yl-6-(1-piperidyl)quinoline;hydrochloride] | 5 to 100 |
| NCC1CCCN(c2ccc3nc(N4CCNCC4)c(Cl)cc3c2)C1 (stereo not shown) [Example 68, [1-(3-chloro-2-piperazin-1-yl-6-quinolyl)-3-piperidyl]methanamine;dihydrochloride] | < 5 |
| Clc1cc2ncccc2nc1N1CCNCC1 [Example 69, 3-chloro-2-piperazin-1-yl-1,5-naphthyridine; hydrochloride] | 5 to 100 |
| COc1ccc2nc(Cl)c(N3CCNCC3)nc2c1 [Example 70, 2-chloro-6-methoxy-3-piperazin-1-yl-quinoxaline; hydrochloride] | 5 to 100 |
| NCCc1ccc(C(=O)Nc2cnc(N3CCNCC3)c(Cl)c2)cc1 [Example 71, 4-(2-aminoethyl)-N-(5-chloro-6-piperazin-1-yl-3-pyridyl)benzamide;dihydrochloride] | 5 to 100 |
| Cc1nnc(-c2cnc(N3CCNCC3)c(Cl)c2)o1 [Example 72, 2-(5-chloro-6-piperazin-1-yl-3-pyridyl)-5-methyl-1,3,4-oxadiazole] | 5 to 100 |
| Cc1nc(-c2cnc(N3CCNCC3)c(Cl)c2)no1 [Example 73, 3-(5-chloro-6-piperazin-1-yl-3-pyridyl)-5-methyl-1,2,4-oxadiazole;hydrochloride] | 5 to 100 |
| NCc1nc(-c2cnc(N3CCNCC3)c(Cl)c2)no1 [Example 74, [3-(5-chloro-6-piperazin-1-yl-3-pyridyl)-1,2,4-oxadiazol-5-yl]methanamine;dihydrochloride] | 5 to 100 |
| NCCc1nc(-c2cnc(N3CCNCC3)c(Cl)c2)no1 [Example 75, 2-[3-(5-chloro-6-piperazin-1-yl-3-pyridyl)-1,2,4-oxadiazol-5-yl]ethanamine;dihydrochloride] | < 5 |
| NCCCc1nc(-c2cnc(N3CCNCC3)c(Cl)c2)no1 [Example 76, 3-[3-(5-chloro-6-piperazin-1-yl-3-pyridyl)-1,2,4-oxadiazol-5-yl]propan-1-amine; dihydrochloride] | 5 to 100 |
| NCc1cccc(OCc2cnc(N3CCNCC3)c(Cl)c2)c1 [Example 77, [3-[(5-chloro-6-piperazin-1-yl-3-pyridyl)methoxy]phenyl]methanamine;dihydrochloride] | 5 to 100 |
| NCc1cccc(COc2cnc(N3CCNCC3)c(Cl)c2)c1 [Example 78, [3-[(5-chloro-6-piperazin-1-yl-3-pyridyl)oxymethyl]phenyl]methanamine;dihydrochloride] | 5 to 100 |
| Clc1cc(I)cnc1N1CCNCC1 [Example 79, 1-(3-chloro-5-iodo-2-pyridyl)piperazine] | 5 to 100 |
| CC(=O)Nc1cnc(N2CCN(C)CC2)c(Cl)c1 [Example 80, N-[5-chloro-6-(4-methylpiperazin-1-yl)-3-pyridyl]acetamide] | 5 to 100 |
| CN1CCN(c2nc3ccccc3cc2Cl)CC1 [Example 81, 3-chloro-2-(4-methylpiperazin-1-yl)quinoline] | 5 to 100 |
| O=C(Oc1ccccc1)c1cnc(N2CCNCC2)c(Cl)c1 [Example 84, Phenyl 5-chloro-6-piperazin-1-yl-pyridine-3-carboxylate; 2,2,2-trifluoroacetic acid] | 5 to 100 |
| NCC#Cc1cnc(N2CCNCC2)c(Cl)c1 [Example 85, 3-(5-chloro-6-piperazin-1-yl-3-pyridyl)prop-2-yn-1-amine; 2,2,2-trifluoroacetic acid] | 5 to 100 |
| NCCC#Cc1cnc(N2CCNCC2)c(Cl)c1 [Example 86, 4-(5-chloro-6-piperazin-1-yl-3-pyridyl)but-3-yn-1-amine; 2,2,2-trifluoroacetic acid] | 5 to 100 |
